Test results as given in patent US7842324B2 (Senomyx, Inc., priority 2005, dated 2010).
Where two headings read alike, the source gives them in different places.

Tests used:
[1] = molecular target: T1, hT1R2/hT1R3 sweet receptor expressed in HEK293 cell line (Homo sapiens, UniProt Q7RTX0+Q8TE23); assay: In vitro hT1R2/hT1R3-HEK293 taste receptor activation assay (FLIPR); assay type: cell-based
T1 construct: expressed in transfected cells; host or cells: HEK293 derivative stably expressing Gα15 and hT1R2/hT1R3, clone S-9
T1 sequence (Q8TE23 20-839): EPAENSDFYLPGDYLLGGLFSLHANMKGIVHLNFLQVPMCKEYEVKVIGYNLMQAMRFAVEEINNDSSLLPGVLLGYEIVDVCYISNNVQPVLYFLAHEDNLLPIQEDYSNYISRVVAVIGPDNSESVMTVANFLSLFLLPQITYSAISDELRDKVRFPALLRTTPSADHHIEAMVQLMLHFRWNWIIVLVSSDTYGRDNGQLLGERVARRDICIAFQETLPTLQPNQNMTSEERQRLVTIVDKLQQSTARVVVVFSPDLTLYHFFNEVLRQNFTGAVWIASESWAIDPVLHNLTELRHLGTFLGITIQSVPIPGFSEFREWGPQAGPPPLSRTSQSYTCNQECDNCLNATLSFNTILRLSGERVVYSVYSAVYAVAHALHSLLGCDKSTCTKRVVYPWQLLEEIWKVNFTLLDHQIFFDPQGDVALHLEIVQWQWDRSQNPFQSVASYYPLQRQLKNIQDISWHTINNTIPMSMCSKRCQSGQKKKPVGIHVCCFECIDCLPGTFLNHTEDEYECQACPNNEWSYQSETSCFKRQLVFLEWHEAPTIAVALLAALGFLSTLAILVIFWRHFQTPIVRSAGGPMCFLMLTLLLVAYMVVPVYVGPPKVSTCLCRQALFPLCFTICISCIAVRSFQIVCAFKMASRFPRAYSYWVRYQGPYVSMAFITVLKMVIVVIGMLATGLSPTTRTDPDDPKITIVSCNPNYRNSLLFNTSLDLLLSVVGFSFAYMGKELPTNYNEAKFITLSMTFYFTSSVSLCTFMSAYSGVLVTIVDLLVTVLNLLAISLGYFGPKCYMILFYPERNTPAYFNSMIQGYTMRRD
T1 sequence (Q7RTX0 21-852): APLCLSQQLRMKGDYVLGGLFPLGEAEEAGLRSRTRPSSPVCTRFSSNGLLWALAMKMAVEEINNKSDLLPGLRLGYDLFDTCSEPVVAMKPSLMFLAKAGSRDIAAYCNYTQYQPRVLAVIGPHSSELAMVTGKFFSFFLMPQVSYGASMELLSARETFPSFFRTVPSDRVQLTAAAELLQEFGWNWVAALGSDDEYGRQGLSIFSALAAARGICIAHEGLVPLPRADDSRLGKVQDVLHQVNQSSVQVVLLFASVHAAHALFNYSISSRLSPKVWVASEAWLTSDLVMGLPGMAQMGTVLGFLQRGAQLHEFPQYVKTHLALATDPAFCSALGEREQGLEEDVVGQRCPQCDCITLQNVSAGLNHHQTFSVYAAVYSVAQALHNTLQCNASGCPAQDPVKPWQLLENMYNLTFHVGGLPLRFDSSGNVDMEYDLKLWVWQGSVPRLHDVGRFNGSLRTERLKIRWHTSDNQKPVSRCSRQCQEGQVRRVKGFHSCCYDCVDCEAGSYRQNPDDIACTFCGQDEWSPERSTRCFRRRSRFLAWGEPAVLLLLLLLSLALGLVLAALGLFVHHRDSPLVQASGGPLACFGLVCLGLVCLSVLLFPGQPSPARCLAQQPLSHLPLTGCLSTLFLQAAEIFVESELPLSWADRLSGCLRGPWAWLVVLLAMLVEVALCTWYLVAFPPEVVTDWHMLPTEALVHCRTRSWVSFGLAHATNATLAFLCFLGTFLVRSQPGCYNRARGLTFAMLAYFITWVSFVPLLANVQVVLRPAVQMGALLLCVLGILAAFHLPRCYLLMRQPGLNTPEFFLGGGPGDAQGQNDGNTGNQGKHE
In short: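 HEK293 cells stably expressing Gα15 and hT1R2/hT1R3 were loaded with Fluo-3AM (4 μM, 1 h, room temperature), then stimulated at room temperature in D-PBS. Peak fluorescence (ex 480/em 535 nm) was normalized to basal. Dose-responses were run in duplicate over 60 nM–30 μM, normalized to 400 mM D-fructose, and EC50 fitted by free-Hill non-linear regression.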

Human Panelists [2] = assay: Difference from Reference human taste test (Table B); assay type: in vivo; settings: 5 μM compound + 6% fructose/glucose, pH 7.1
Source text: Purpose: To determine how the intensity of a test sample of an experimental compound differs from that of a reference sample in terms of sweetness. This type of study requires a larger number of evaluations in order to obtain statistically significant data, so the test may be repeated with the same or additional panelists.
Subjects rate the difference in intensity of the test sample compared to the reference sample for the key attribute on a scale of −5 (much less sweet than the reference) to +5 (much sweeter than the reference). A score of 0 indicates the test sample is equally as sweet as the reference.
Procedure: Ten or more Subjects are used for the Difference from Reference tests. Subjects have been previously familiarized with the key attribute taste and are trained to use the −5 to +5 scale. Subjects refrain from eating or drinking (except water) for at least 1 hour prior to the test. Subjects eat a cracker and rinse with water four times to clean the mouth. […]
The scores for each test are averaged across Subjects and standard error is calculated. Panel accuracy can be determined using the score from the blind reference test. […]

Human Panelists [3] = assay: Line Scale sensory testing human taste test (Table C); assay type: in vivo; settings: low sodium buffer pH 7.1
Source text: Purpose: To create a dose-response curve for perceived sweetness intensity of fructose-glucose concentrations. Test samples containing experimental compound are compared to this dose-response curve to determine equivalent sweetness intensity. This type of study requires a number of evaluations in order to obtain statistically significant data, so the test may be repeated with the same or additional panelists.
Overview: A group of eight or more panelists taste solutions including fructose-glucose at various concentrations, as well as the experimental compound, both with and without added fructose-glucose. Panelists rate sweetness intensity of all samples on an unstructured horizontal line scale, anchored from 0 to 10, where 0 equals no sweetness and 10 equals intense sweetness. Scores for sweetness intensity are averaged across panelists. Then using the average scores and/or equation of the line for the fructose-glucose dose-response curve, equivalent sweetness fructose-glucose concentrations are determined for the samples containing experimental compound.
Procedure: Eight or more subjects are used for the Line Scale tests. Subjects have been previously familiarized with the key attribute taste and are trained to use the 0 to 10 unstructured line scale. Subjects refrain from eating or drinking (except water) for at least 1 hour prior to the test. Subjects eat a cracker and rinse with water several times to clean the mouth.
Fructose-glucose solutions are provided at a wide range of concentrations, such as 0%, 2%, 4%, 6%, 8%, and 10% fructose-glucose, in order to create the dose-response curve. Samples containing experimental compound are prepared both alone and in a 6% fructose-glucose solution. All samples are made up in low sodium buffer pH 7.1. In order to aid dispersion, solutions can also be made up in 0.1% ethanol.
The solutions are dispensed in 20 ml volumes into 1 oz. sample cups and served to the subjects at room temperature. All samples are presented in randomized counterbalanced order to reduce response bias. Further, two sessions of testing may be used to check panel precision.
Subjects taste each sample individually and rate sweetness intensity on the line scale prior to tasting the next sample. All samples are expectorated. Subjects may retaste the samples but can only use the volume of sample given. Subjects must rinse with water between samples. Eating an unsalted cracker between sample pairs may be required depending on the samples tasted.
The scores for each sample are averaged across subjects and standard error is calculated. The dose-response curve is plotted graphically, and this may be used to ensure the panel is rating accurately; i.e. increasing the concentration of fructose-glucose should correspond to increased average scores for sweetness. A 2-way ANOVA (factors being samples and panelists) and multiple comparison tests (such as Tukey's Honestly Significant Difference test) can be used to determine differences among samples and/or panelists. A 3-way ANOVA, with sessions as the third factor, can be used to determine if there is any difference in the ratings between sessions.

[4] = read-out: EC50 for activation of a hT1R2/hT1R3 sweet receptor expressed in HEK293 cell line
[5] = 10 μM compound + 6% fructose/glucose
[6] = 5 μM compound + 6% fructose/glucose

Row | SMILES | EC50 [1, 4] [nM] | EC50 ([1]; Table A, read-out: SWEET EC50) [nM] | other results
1 | Cc1cscc1-c1ccc(C(C)(C)C(=O)NCC(C)C)cc1 [Compound 2, N-Isobutyl-2-methyl-2-(4-(4-methylthiophen-3-yl)phenyl)propanamide] | 850 | – | Perceived Equivalent Sweet Solution (Human Panelists [2]): ≥ 9% fructose/glucose
2 | CC(C)CNC(=O)C(C)(C)c1ccc(-c2cncc(C#N)n2)cc1 [Compound 20, 2-(4-(6-cyanopyrazin-2-yl)phenyl)-N-isobutyl-2-methylpropanamide] | 20 | – | Perceived Equivalent Sweet Solution (Human Panelists [3]; [5]): Equal to 10% fructose/ % fructose/glucose; Perceived Equivalent Sweet Solution (Human Panelists [3]; 10 μM compound alone): Equal to 6% fructose/ % fructose/glucose
3 | CCC(C)CNC(=O)C(C)(C)c1ccc(-c2cncnc2)cc1 (stereo not shown) [Compound 25, 2-methyl-N-(2-methylbutyl)-2-(4-(pyrimidin-5-yl)phenyl)propanamide] | 230 | – | Perceived Equivalent Sweet Solution (Human Panelists [3]; [5]): Equal to 10% fructose/ % fructose/glucose
4 | COCc1cccc(-c2ccc(C(C)(C)C(=O)NCC(C)C)cc2OC)c1 [Compound 27, N-isobutyl-2-(2-methoxy-3′-(methoxymethyl)biphenyl-4-yl)-2-methylpropanamide] | 260 | – | Perceived Equivalent Sweet Solution (Human Panelists [3]; [6]): Equal to 8% fructose/ % fructose/glucose
5 | COCc1cccc(-c2ccc(C(C)(C)C(=O)NCC(C)C)cc2)c1 [Compound 30, N-isobutyl-2-(3′-(methoxymethyl)biphenyl-4-yl)-2-methylpropanamide] | 610 | – | Perceived Equivalent Sweet Solution (Human Panelists [3]; [6]): Equal to 10% fructose/ % fructose/glucose
6 | COCc1cncc(-c2ccc(C(C)(C)C(=O)NCC(C)C)cc2)c1 [Compound 32, N-isobutyl-2-(4-(5-(methoxymethyl)pyridin-3-yl)phenyl)-2-methylpropanamide] | 910 | – | Perceived Equivalent Sweet Solution (Human Panelists [3]; [5]): Equal to 8% fructose/ % fructose/glucose
7 | CC(C)CNC(=O)C(C)(C)c1ccc(-c2cccn2C)cc1 [Compound 34, N-isobutyl-2-methyl-2-(4-(1-methyl-1H-pyrrol-2-yl)phenyl)propanamide] | 960 | – | melting point: 59 to 60 °C; Perceived Equivalent Sweet Solution (Human Panelists [3]; [6]): Equal to 8% fructose/ % fructose/glucose
8 | CC[C@@H](CO)NC(=O)C(C)(C)c1ccc(-c2cccc(COC)c2)cc1 [Compound 39, (S)-N-(1-hydroxybutan-2-yl)-2-(3′-(methoxymethyl)biphenyl-4-yl)-2-methylpropanamide] | 1870 | – | melting point: 73 to 75 °C; Perceived Equivalent Sweet Solution (Human Panelists [3]; 15 μM compound + 6% fructose/glucose): Equal to 8% fructose/ % fructose/glucose
9 | CC(C)CNC(=O)C(C)(C)c1ccc(-c2cncnc2)cc1 [Compound 43, N-isobutyl-2-methyl-2-(4-(pyrimidin-5-yl)phenyl)propanamide] | 1010 | – | Perceived Equivalent Sweet Solution (Human Panelists [3]; [5]): Equal to 8% fructose/ % fructose/glucose
10 | CC(C)CNC(=O)C(C)(C)c1ccc(-c2cncc(OC(C)C)c2)cc1 [Compound A87] | – | 210 | –
11 | COc1ccc([C@@H](C)NC(=O)C(C)(C)c2ccc(-c3cncnc3)cc2)cc1 [Compound A88] | – | 370 | –
12 | CC(C)(C(=O)NC1CCCCC1)c1ccc(-c2cncnc2)cc1 [Compound A89] | – | 410 | –
13 | CCCNC(=O)C(C)(C)c1ccc(-c2cncc(C#N)c2)cc1 [Compound A90] | – | 480 | –
14 | CCC(CC)CNC(=O)C(C)(C)c1ccc(-c2cncc(C#N)c2)cc1 [Compound A91] | – | 620 | –
15 | CC(C)CNC(=O)C(C)(C)c1ccc(-c2cc(CO)ccc2C=O)cc1 [Compound A92] | – | 630 | –
16 | CCC(C(=O)NCC(C)C)c1ccc(-c2ccccc2)cc1 (stereo not shown) [Compound A93] | – | 900 | –
